Data from ChEMBL document CHEMBL5108044, “Discovery of a Novel Potent STAT3 Inhibitor HP590 with Dual p-Tyr705/Ser727 Inhibitory Activity for Gastric Cancer Treatment” (J Med Chem, 2022).
The source made the active and inactive calls. The calls are words filed in the database; no cut-off is given here.

Assays:
MKN-45 [1] = experiment: In vivo inhibition of STAT3 phosphorylation at Ser727 residue in human MKN-45 cells xenografted in BALB/c nude mouse at 25 to 50 mg/kg, po qd administered for 5 weeks by western blot analysis; assay type: functional, organism-based; settings: dose 25-50 mg/kg
MKN-45 [2] = experiment: Induction of apoptosis in human MKN-45 cells assessed as necrotic cells 20 nM incubated for 48 hrs by FITC-annexin V/propidium iodide staining based flow cytometry (reference value: 10.3%); assay type: functional
[3] = Inhibition of ATP production in human MKN-45 cells incubated for 20 to 24 hrs by ATP assay kit method; assay type: functional, cell-based
MKN-45 [4] = experiment: Antiproliferative activity against human MKN-45 cells assessed as reduction in cell viability incubated for 72 hrs by MTS assay; assay type: functional, cell-based; settings: MKN-45, 72 h
[5] = target: T1, Signal transducer and activator of transcription 3 (Homo sapiens, UniProt P40763); experiment: Inhibition of STAT3 phosphorylation at Ser727 residue in human MGC-803 cells upto 40 nM incubated upto 24 hrs by Western blotting analysis; assay type: cell-based
[6] = target: T1, Signal transducer and activator of transcription 3; experiment: Inhibition of STAT3 phosphorylation at Ser727 residue in human MKN-45 cells incubated upto 24 hrs by Western blotting analysis; assay type: cell-based; settings: dose <= 40.0 nM, DDE = dose-dependent effect
[7] = target: Tyrosine-protein kinase JAK2 (Homo sapiens, UniProt O60674); experiment: Inhibition of JAK2 (unknown origin)
[8] = target: Epidermal growth factor receptor (Homo sapiens, UniProt P00533); experiment: Inhibition of EGFR (unknown origin)
[9] = target: Proto-oncogene tyrosine-protein kinase Src (Homo sapiens, UniProt P12931); experiment: Inhibition of SRC (unknown origin)
[10] = target: T1, Signal transducer and activator of transcription 3; experiment: Inhibition of STAT3 in human MKN-45 cells assessed as downregulation of cyclin D1 expression incubated up to 24 hrs by western blot analysis; assay type: cell-based; settings: dose <= 40.0 nM, DDE = dose-dependent effect
[11] = target: T1, Signal transducer and activator of transcription 3; experiment: Inhibition of STAT3 in human MGC-803 cells assessed as downregulation of cyclin D1 expression up to 40 nM by western blot analysis; assay type: cell-based; settings: time <= 24.0 hrs, TDE = time-dependent effect
[12] = target: T1, Signal transducer and activator of transcription 3; experiment: Inhibition of STAT3 in human AGS cells assessed as downregulation of c-myc expression at 10 to 40 nM incubated for 24 hrs by RT-PCR analysis; assay type: cell-based; settings: dose 10-40 nM
[13] = target: T1, Signal transducer and activator of transcription 3; experiment: Inhibition of STAT3 in human GES1cells assessed as downregulation of Cyclin D1 expression at 10 to 40 nM incubated for 24 hrs by RT-PCR analysis; assay type: cell-based; settings: GES1, dose 10-40 nM
[14] = target: T1, Signal transducer and activator of transcription 3; experiment: Inhibition of IL-6 induced STAT3 phosphorylation at Tyr705 residue in human MKN-45 cells at 40 nM preincubated for 24 hrs followed by IL-6 stimulation and measured after 30 min by Western blotting analysis; assay type: cell-based; settings: time 24.5 hrs
MKN-45 [15] = experiment: Inhibition of mitochondrial respiration in STAT3 knockdown human MKN-45 cells assessed as maximal oxygen consumption rate incubated for 80 mins […]; assay type: functional, cell-based
NIH3T3 = experiment: Antiproliferative activity against […] cells assessed as cell viability measured upto 1 uM incubated for 72 hrs by MTS assay; assay type: toxicity, cell-based; settings: mouse, nih3t3, 72 h
MKN-45 [16] = experiment: Antiproliferative activity against human MKN-45 cells assessed as cell viability incubated for 72 hrs by MTS assay; assay type: functional, cell-based; settings: dose <= 100.0 nM, DDE = dose-dependent effect
AGS = experiment: Inhibition of colony formation in human AGS cells assessed as reduction in number of colonies incubated for 5 to 7 days by crystal violet staining based assay; assay type: functional, cell-based; settings: dose <= 20.0 nM, time 5-7 day, DDE = dose-dependent effect
MGC-803 [17] = experiment: Inhibition of colony formation in human MGC-803 cells assessed as reduction in number of colonies incubated for 5 to 7 days by crystal violet staining based assay; assay type: functional, cell-based; settings: dose <= 20.0 nM, time 5-7 day, DDE = dose-dependent effect
MKN-45 [18] = experiment: Induction of apoptosis in human MKN-45 cells assessed as early apoptic cells 5 nM incubated for 48 hrs by FITC-annexin V/propidium iodide staining based flow cytometry (reference value: 2.79%); assay type: functional
MKN-45 [19] = experiment: Induction of apoptosis in human MKN-45 cells assessed as viable cells at 5 nM incubated for 48 hrs by FITC-annexin V/propidium iodide staining based flow cytometry (reference value: 68%); assay type: functional; settings: read-out: Activity
MKN-45 [20] = experiment: Induction of apoptosis in human MKN-45 cells assessed as early apoptic cells 10 nM incubated for 48 hrs by FITC-annexin V/propidium iodide staining based flow cytometry (reference value: 2.79%); assay type: functional
MKN-45 [21] = experiment: Induction of apoptosis in human MKN-45 cells assessed as early apoptic cells 20 nM incubated for 48 hrs by FITC-annexin V/propidium iodide staining based flow cytometry (reference value: 2.79%); assay type: functional
Cytochrome P450 1A2 = target: T2, Cytochrome P450 1A2 (Homo sapiens, UniProt P05177); experiment: Inhibition of CYP1A2 in human liver microsome; assay type: ADME, microsomes
T2 sequence (P05177 whole entry): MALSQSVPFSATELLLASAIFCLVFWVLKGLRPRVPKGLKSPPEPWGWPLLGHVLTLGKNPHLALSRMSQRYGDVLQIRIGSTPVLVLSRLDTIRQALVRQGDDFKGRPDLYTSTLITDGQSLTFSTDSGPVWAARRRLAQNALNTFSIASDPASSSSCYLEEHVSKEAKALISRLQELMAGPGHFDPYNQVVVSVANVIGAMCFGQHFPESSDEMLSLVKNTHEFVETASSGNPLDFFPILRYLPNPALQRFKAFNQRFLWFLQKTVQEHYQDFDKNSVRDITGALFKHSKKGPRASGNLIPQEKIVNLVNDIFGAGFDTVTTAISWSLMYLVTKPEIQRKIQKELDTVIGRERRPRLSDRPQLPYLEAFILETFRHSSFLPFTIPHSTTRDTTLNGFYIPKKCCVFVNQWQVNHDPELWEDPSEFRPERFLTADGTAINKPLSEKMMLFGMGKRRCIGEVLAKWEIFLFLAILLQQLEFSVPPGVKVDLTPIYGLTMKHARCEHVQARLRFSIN

[22] = Clearance in ICR mouse plasma at 1 mg/kg, iv measured up to 24 hrs by LC-MS/MS analysis; assay type: ADME, organism-based
MGC-803 [23] = experiment: Potency index, ratio of IC50 for BBI608 to IC50 for test compound for antiproliferative activity against human MGC-803 cells assessed as reduction in cell viability incubated for 72 hrs by MTS assay; assay type: functional
[24] = Toxicity in […] mouse assessed as body weight loss at 25 to 50 mg/kg, po qd administered for 5 weeks; assay type: organism-based; settings: in vivo, 840 h, dose 25-50 mg/kg
[25] = Toxicity in […] mouse xenografted with human MKN-45 cells assessed as spleen damage at 25 to 50 mg/kg, po qd administered for 5 weeks by H and E staining based analysis; assay type: organism-based; settings: in vivo, 840 h, dose 25-50 mg/kg
[26] = Toxicity in […] mouse xenografted with human MKN-45 cells assessed as lung damage at 25 to 50 mg/kg, po qd administered for 5 weeks by H and E staining based analysis; assay type: organism-based; settings: in vivo, 840 h, dose 25-50 mg/kg
[27] = Toxicity in […] mouse xenografted with human MKN-45 cells assessed as kidney damage at 25 to 50 mg/kg, po qd administered for 5 weeks by H and E staining based analysis; assay type: organism-based; settings: in vivo, 840 h, dose 25-50 mg/kg

T1 sequence (P40763 whole entry): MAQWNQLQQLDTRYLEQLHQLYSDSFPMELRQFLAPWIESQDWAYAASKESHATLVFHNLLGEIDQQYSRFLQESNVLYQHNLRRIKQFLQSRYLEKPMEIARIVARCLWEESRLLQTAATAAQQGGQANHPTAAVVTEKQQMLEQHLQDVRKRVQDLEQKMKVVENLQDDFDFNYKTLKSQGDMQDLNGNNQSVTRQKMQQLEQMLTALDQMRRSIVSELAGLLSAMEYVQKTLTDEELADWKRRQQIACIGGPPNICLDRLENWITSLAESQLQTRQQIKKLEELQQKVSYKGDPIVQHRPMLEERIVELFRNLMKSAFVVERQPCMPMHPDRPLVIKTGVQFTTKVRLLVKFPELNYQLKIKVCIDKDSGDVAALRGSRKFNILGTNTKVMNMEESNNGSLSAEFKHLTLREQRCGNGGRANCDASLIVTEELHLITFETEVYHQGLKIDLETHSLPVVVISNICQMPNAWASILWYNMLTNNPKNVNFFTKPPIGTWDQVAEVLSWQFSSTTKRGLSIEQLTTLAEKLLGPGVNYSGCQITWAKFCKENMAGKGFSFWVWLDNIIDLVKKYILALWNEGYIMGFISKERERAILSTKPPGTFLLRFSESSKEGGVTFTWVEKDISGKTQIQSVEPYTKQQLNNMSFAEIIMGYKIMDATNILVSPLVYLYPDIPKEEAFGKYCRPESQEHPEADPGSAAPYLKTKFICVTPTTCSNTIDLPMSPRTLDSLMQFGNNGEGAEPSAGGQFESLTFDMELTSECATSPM
Sequence of Epidermal growth factor receptor (P00533 whole entry): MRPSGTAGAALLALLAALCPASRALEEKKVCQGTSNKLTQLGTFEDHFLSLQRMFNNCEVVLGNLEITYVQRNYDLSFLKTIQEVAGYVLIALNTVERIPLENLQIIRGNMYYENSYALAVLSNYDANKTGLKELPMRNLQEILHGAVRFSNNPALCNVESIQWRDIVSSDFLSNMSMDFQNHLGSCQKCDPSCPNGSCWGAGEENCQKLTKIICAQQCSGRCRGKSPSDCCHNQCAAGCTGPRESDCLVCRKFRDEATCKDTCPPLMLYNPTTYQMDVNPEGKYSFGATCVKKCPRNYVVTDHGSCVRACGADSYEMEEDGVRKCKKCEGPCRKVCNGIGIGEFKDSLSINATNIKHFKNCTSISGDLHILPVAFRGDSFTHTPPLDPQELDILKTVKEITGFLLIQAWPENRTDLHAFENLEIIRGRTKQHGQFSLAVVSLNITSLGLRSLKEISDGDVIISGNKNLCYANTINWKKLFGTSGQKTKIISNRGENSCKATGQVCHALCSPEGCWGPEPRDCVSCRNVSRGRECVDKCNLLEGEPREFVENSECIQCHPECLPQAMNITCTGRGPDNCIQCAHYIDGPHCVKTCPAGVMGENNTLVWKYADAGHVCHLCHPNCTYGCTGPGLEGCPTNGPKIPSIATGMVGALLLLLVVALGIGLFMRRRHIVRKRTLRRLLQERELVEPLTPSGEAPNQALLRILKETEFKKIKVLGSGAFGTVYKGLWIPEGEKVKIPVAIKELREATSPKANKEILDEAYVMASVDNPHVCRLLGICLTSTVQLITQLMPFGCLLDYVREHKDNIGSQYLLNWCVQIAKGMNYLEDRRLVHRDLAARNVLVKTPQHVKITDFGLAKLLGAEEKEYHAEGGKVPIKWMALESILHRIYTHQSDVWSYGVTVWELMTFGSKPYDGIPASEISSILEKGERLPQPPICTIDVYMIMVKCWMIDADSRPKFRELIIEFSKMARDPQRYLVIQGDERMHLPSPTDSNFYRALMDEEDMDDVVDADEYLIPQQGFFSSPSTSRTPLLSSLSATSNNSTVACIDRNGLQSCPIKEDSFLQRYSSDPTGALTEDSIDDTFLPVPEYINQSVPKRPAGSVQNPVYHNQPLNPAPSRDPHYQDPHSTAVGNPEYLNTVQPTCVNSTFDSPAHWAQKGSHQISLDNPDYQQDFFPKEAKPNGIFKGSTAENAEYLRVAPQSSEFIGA
Sequence of Proto-oncogene tyrosine-protein kinase Src (P12931 2-536 limits assumed): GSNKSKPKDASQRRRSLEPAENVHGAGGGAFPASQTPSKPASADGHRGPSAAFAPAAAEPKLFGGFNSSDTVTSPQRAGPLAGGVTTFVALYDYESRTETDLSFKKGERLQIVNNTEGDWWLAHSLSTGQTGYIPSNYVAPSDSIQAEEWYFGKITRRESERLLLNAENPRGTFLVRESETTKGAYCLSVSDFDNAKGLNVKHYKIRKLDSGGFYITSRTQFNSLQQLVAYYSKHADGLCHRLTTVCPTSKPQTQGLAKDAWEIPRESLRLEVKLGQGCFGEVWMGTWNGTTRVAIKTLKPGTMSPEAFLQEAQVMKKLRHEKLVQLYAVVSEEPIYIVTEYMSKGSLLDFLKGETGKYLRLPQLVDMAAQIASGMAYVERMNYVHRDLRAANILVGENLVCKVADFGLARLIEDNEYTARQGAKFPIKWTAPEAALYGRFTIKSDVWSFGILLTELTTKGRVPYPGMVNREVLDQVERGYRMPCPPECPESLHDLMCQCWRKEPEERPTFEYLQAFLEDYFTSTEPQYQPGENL
Sequence of Tyrosine-protein kinase JAK2 (O60674 whole entry): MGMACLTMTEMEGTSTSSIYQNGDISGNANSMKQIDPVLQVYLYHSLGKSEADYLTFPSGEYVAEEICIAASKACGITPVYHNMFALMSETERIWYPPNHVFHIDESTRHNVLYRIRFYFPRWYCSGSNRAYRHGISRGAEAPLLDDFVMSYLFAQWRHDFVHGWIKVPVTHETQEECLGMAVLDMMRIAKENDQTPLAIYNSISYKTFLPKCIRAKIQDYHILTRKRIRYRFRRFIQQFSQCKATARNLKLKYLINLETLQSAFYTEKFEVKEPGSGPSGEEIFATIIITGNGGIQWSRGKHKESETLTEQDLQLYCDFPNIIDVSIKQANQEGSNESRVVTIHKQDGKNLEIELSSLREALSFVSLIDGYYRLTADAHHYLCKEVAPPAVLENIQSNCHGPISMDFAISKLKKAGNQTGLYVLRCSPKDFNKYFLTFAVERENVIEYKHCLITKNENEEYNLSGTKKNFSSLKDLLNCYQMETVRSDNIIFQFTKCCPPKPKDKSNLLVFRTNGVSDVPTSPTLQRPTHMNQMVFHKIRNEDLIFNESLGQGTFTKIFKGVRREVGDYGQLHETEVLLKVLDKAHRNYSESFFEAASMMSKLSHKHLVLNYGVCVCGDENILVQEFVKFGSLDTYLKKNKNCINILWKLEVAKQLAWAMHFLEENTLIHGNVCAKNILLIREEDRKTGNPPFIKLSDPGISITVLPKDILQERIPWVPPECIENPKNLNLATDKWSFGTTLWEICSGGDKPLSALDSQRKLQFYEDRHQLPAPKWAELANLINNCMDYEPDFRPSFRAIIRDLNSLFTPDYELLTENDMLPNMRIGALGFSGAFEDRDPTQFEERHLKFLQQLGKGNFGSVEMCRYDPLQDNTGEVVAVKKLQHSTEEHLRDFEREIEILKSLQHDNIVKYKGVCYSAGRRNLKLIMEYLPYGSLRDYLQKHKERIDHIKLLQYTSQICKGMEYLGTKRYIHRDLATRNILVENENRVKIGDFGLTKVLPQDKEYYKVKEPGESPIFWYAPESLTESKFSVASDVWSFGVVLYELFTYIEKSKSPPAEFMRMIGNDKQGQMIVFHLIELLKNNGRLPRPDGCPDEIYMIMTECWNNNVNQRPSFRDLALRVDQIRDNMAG

IC50 [3]: 0.0247 µM | IC50 (MKN-45 [4]): 0.0093 µM | inhibition [5]: 100% | inhibition [6]: Dde | IC50 [7]: > 10 µM | IC50 [8]: > 10 µM | IC50 [9]: > 10 µM | inhibition [10]: Dde | inhibition [11]: Tde | inhibition [12]: Active | inhibition [13]: Active | inhibition [14]: Active | IC50 (Cytochrome P450 1A2): > 50 µM | clearance [22]: 7.33 mL/min/kg
Structure (SMILES): O=C(c1ccc(-c2noc(-c3ccc(C(F)(F)F)cc3)n2)cc1)N1CCN(Cc2ccc(OCC(F)(F)F)cc2)CC1
inhibition (MKN-45 [1]): Active | Activity (MKN-45 [2]): 11.3% | inhibition (MKN-45 [15]): Active | Activity (NIH3T3): Non-Toxic | Activity (MKN-45 [16]): Dde | inhibition (AGS): Dde | inhibition (MGC-803 [17]): Dde | Activity (MKN-45 [18]): 4.73% | viability at 0.005 µM (MKN-45 [19]): 69.6% | Activity (MKN-45 [20]): 5.7% | Activity (MKN-45 [21]): 5.06% | Ratio IC50 (MGC-803 [23]): 30 | Activity [24]: Non-Toxic | Activity [25]: Non-Toxic | Activity [26]: Non-Toxic | Activity [27]: Non-Toxic
